Where two headings read alike, the source gives them in different places.
Columns and labels:
mTOR = mTOR inhibition (RPS6 phosphorylation status), In-Cell Western; type: cell-based, human
Procedure, shortened: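 WI-38 cells exposed to compounds at 5, 10 and 20 μM for 24 hrs. Fixed cells co-stained overnight at 4° C with anti-RPS and anti-pRPS6 (Ser-235/236) antibodies, then DyLight 680/800 secondaries. Phospho-RPS6 relative to total RPS6 read by near-infrared In-Cell Western imaging.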

WI-38 cells [1] = test: MMS resistance assay; type: cell-based, human; settings: for fold induction at 10 µM: Homo sapiens, 12 h, normalized ATP measurement; for Assay 3: MMS-resistant / Assay 5: Triple resistant: YES/NO; for Assay 3: MMS-resistant: * indicates partial; for Assay 5: Triple resistant: H2O2, cadmium and MMS
Procedure, shortened: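 WI-38 cells were given compounds at five final concentrations (0.25–20 μM) in triplicate, followed by cadmium or MMS for 12 h. For MMS, medium was switched from OptiMEM+10% FBS to serum-free DMEM+2% BSA when compounds were added, 24 h before stressor. Two independent assays were run, analysed by global variance t-test.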

WI-38 cells [2] = test: Long-term effects on cell viability (5 days, ATP; morphology, PI imaging); type: cell-based; settings: 10 μM; for Luminescence signal for ATP measurement, day-1 Average / Luminescence signal for ATP measurement, day-2 Average / Luminescence signal for ATP measurement, day-3 Average / Luminescence signal for ATP measurement, day-4 Average / Luminescence signal for ATP measurement, day-5 Average / viability at 10 µM: Batch 1; for Luminescence signal for ATP measurement, day-1 Average / Luminescence signal for ATP measurement, day-2 Average / Luminescence signal for ATP measurement, day-3 Average / Luminescence signal for ATP measurement, day-4 Average / Luminescence signal for ATP measurement, day-5 Average: n = 6, day-0 luminescence = 320956 ± 24708; for viability at 10 µM: Homo sapiens, WI-38, 120 h, DMSO ctrl = 100.0%, read-out: ATP luminescence by day-5 normalized; for Luminescence signal for ATP measurement, day-5 Average / viability at 10 µM: day-5; for O = Potential toxicity / Q = Potential toxicity: human, 5 days;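 as to Luminescence signal for ATP measurement, day-2 Average: compounds at 10 µM with ATP read daily over 5 days of treatment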;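 as to Luminescence signal for ATP measurement, day-3 Average: compounds at 10 µM with ATP read daily over 5 days of treatment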;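 as to Luminescence signal for ATP measurement, day-4 Average: compounds at 10 µM with ATP read daily over 5 days of treatment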;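 as to Luminescence signal for ATP measurement, day-5 Average: compounds at 10 µM with ATP read daily over 5 days of treatment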
WI-38 cells [3] = settings: no H2O2 stress, 10 uM; negative control 0.41% ± 0.23%
Procedure: WI-38 cells were seeded on 384-well plates for 24 hrs and then incubated with small molecules for 24 hrs. […] Images were collected on an INCell Analyzer 2000 (GE) and analyzed with the Developer software.

WI-38 cells [4] = settings: for No H2O2 stress treatment, at 10 uM (fold change): normalized ATP measurement; for Assay 1: H2O2-resistant: YES/NO, if NO, possibly due to repeated freezing/thawing of stocks
WI-38 cells [5] = test: Propidium iodide (PI) cell-death imaging upon H2O2 stress; type: cell-based, human; settings: for Assay 7: H2O2-resistant, at 10 uM, validated by propidium iodide (PI) cell-death imaging: w/H2O2, 3 hrs/4 hrs/5 hrs, YES/NO; for cytotoxicity at 10 µM: Homo sapiens, WI-38
[6] = Exp. 1, WI-38 cells, read-out: Exp. 1, under MMS stress treatment, at 10 uM (fold change)
[7] = Exp. 2, WI-38 cells, read-out: Exp. 2, under MMS stress treatment, at 10 uM (fold change)
[8] = score in summary of 38 core set hits
[9] = WI-38 cells, 10 μM, (*) = compromised ability to protect cells from H2O2, could be due to stability issue
[10] = asterisks indicate the loss of the ability to protect cells from H2O2 over time
[11] = derived from dose response curves, 0.6-20 uM, H2O2-resistance of WI-38 cells
[12] = read-out: Est. ED50, dose response 0.6-20 μM, H2O2-resistance
[13] = H2O2 3 hrs, 10 uM, n = 6, negative control 5.44% ± 0.79%, read-out: Percentage of propidium iodide-positive dead cells (under H2O2 stress treatment), 3 hrs
[14] = pre-treatment at 10 uM, 3.5 hours of H2O2, DMSO control 27.4% ± 6.5%, */**/*** = reduced by one/two/three standard deviations, read-out: Percentage of propidium iodide-positive dead cells (under H2O2 stress treatment), at 10 uM

O=C(c1ccc([N+](=O)[O-])o1)N1CCc2ccccc21 [O13]
G = mTOR down-regulation (mTOR; 2-point score): 0 | G = mTOR down-regulation (mTOR; summary score): 0 | fold induction at 10 µM (WI-38 cells [1]; [6]): 1.11 | fold induction at 10 µM (WI-38 cells [1]; [7]): 2.24 | Assay 3: MMS-resistant (WI-38 cells [1]): YES | Assay 5: Triple resistant (WI-38 cells [1]): YES | B = MMS resistant (WI-38 cells [1]; [8]): 0 | B = MMS resistant (WI-38 cells [1]; summary score): 1 | D = Triple resistant (WI-38 cells [1]; summary score): 2 | Luminescence signal for ATP measurement, day-1 Average (WI-38 cells [2]): 546070 | Luminescence signal for ATP measurement, day-2 Average (WI-38 cells [2]): 704210 | Luminescence signal for ATP measurement, day-3 Average (WI-38 cells [2]): 806718 | Luminescence signal for ATP measurement, day-4 Average (WI-38 cells [2]): 947030 | Luminescence signal for ATP measurement, day-5 Average (WI-38 cells [2]): 992715 | viability at 10 µM (WI-38 cells [2]): 96.7% | O = Potential toxicity (WI-38 cells [2]): 0 | Q = Potential toxicity (WI-38 cells [2]): 0 | Percentage of propidium iodide-positive dead cells (no H2O2 stress treatment), at 10 uM (WI-38 cells [3]): 0.69% ± 0.12%, | H2O2-resistant (WI-38 cells [4]; [9]): YES | No H2O2 stress treatment, at 10 uM (fold change) (WI-38 cells [4]; WI-38 cells): 1.09 fold change | Assay 1: H2O2-resistant (WI-38 cells [4]): YES | H2O2-resistant (WI-38 cells [4]; [10]): YES | EC50 (WI-38 cells [4]; [11]): 10.1 µM | EC50 (WI-38 cells [4]; [12]): 10.1 µM | Assay 7: H2O2-resistant, at 10 uM, validated by propidium iodide (PI) cell-death imaging (WI-38 cells [5]; 10 uM): YES | cytotoxicity at 10 µM (WI-38 cells [5]; [13]): 1.13% | cytotoxicity at 10 µM (WI-38 cells [5]; H2O2 4 hrs, 10 uM, n = 6, negative control 16.81% ± 1.42%, read-out: Percentage of propidium iodide-positive dead cells (under H2O2 stress treatment), 4 hrs): 2.56% | cytotoxicity at 10 µM (WI-38 cells [5]; H2O2 5 hrs, 10 uM, n = 6, negative control 22.50% ± 1.53%, read-out: Percentage of propidium iodide-positive dead cells (under H2O2 stress treatment), 5 hrs): 7.03% | cytotoxicity at 10 µM (WI-38 cells [5]; [14]): 4.8%

Oc1ncnc2sc3c(c12)CCC3 [O14]
G = mTOR down-regulation (mTOR; 2-point score): 0 | G = mTOR down-regulation (mTOR; summary score): 0 | fold induction at 10 µM (WI-38 cells [1]; [6]): 0.84 | fold induction at 10 µM (WI-38 cells [1]; [7]): 3.45 | Assay 3: MMS-resistant (WI-38 cells [1]): YES | Assay 5: Triple resistant (WI-38 cells [1]): YES | B = MMS resistant (WI-38 cells [1]; [8]): 0 | B = MMS resistant (WI-38 cells [1]; summary score): 1 | D = Triple resistant (WI-38 cells [1]; summary score): 2 | Luminescence signal for ATP measurement, day-1 Average (WI-38 cells [2]): 581665 | Luminescence signal for ATP measurement, day-2 Average (WI-38 cells [2]): 685103 | Luminescence signal for ATP measurement, day-3 Average (WI-38 cells [2]): 819423 | Luminescence signal for ATP measurement, day-4 Average (WI-38 cells [2]): 1074238 | Luminescence signal for ATP measurement, day-5 Average (WI-38 cells [2]): 1052551 | viability at 10 µM (WI-38 cells [2]): 102% | O = Potential toxicity (WI-38 cells [2]): 0 | Q = Potential toxicity (WI-38 cells [2]): 0 | Percentage of propidium iodide-positive dead cells (no H2O2 stress treatment), at 10 uM (WI-38 cells [3]): 0.41% ± 0.22%, | H2O2-resistant (WI-38 cells [4]; [9]): YES | No H2O2 stress treatment, at 10 uM (fold change) (WI-38 cells [4]; WI-38 cells): 1.11 fold change | Assay 1: H2O2-resistant (WI-38 cells [4]): YES | H2O2-resistant (WI-38 cells [4]; [10]): YES | EC50 (WI-38 cells [4]; [11]): 12.5 µM | EC50 (WI-38 cells [4]; [12]): 12.5 µM | Assay 7: H2O2-resistant, at 10 uM, validated by propidium iodide (PI) cell-death imaging (WI-38 cells [5]; 10 uM): YES | cytotoxicity at 10 µM (WI-38 cells [5]; [13]): 3.8% | cytotoxicity at 10 µM (WI-38 cells [5]; [14]): 12.7%
